Assay results: patent US5700679A, “Lipid vesicles having a bilayer containing a surfactant with anti-viral and spermicidal activity” (priority 1996, dated 1997)

How the values were obtained:
[1] = system: spermatozoa (human semen); assay: Sander-Cramer Spermicidal Assay; type: cell-based; details: highest dilution that immobilizes spermatozoa in less than 20 seconds; NP9 concentration 10 mg/mL in DMSO
Method: In this Example, the preparation of Example 1 was tested for spermicidal activity using the Sander-Cramer spermicidal assay. A series of dilutions of the test compound are prepared using 0.9% saline. 1 mL of test article is mixed with 0.2 mL of human semen in a […] by drawing the mixture into a pipet and forcibly expressing the mixture. This procedure is repeated 6 times. A hanging drop of the mixture is prepared and five fields are observed under low power magnification. The whole process from mixing to microscopic observation must be accomplished in less than 20 seconds. The end point is the highest dilution that immobilizes spermatozoa in less than 20 seconds.

spermatozoa = details: cited from earlier work

Row | Substance | Highest Spermicidal Dilution [1] | spermicidal properties (in words) (spermatozoa)
1 | poly(ethylene glycol) p-nonylphenyl ether [NP9 Control] | 91 | –
2 | polyethylene glycol p-isooctylphenyl ether [TRITON-X] | – | some spermicidal properties
